Reference: US10544190B2, “Peptide that supresses binding of beta-amyloid and rage” (ENSOL BIOSCIENCES INC., priority 2016, dated 2020)
Where a SMILES comes first, the peptide text is derived from it. Where no end group is shown, it is not given here.

Columns and labels:
beta-amyloid 1-42 [1] = assay: Inhibition of entry of beta-amyloid 1-42 into brain II (ELISA of brain); assay type: in vivo; conditions: ICR mice, peptide 25 mg/kg intraperitoneally; for Beta-amyloid 1-42 concentration in brain: 20 min before i.v. 25 μM beta-amyloid 1-42, control group 60.8 ± 14.8, normal group 0.0 ± 11.9
Method: Based on the test results of Example 1, the following test was conducted in order to evaluate whether Example 2 and Comparative Examples 1 and 2, in addition to Example 1, are effective at inhibiting the entry of beta-amyloid 1-42 into the brain.
Specifically, 1 mg ofbeta-amyloid 1-42 (American Peptide Company, Sunnyvale, Calif., USA) was added with 2 ml of hexafluoroisopropanol (HFIP), allowed to stand at room temperature for 3 days, and aliquoted at 100 μl each into tubes. After evaporation of hexafluoroisopropanol (HFIP) using a speed vacuum, 10 μl of an anhydrous DMSO (dimethyl sulfoxide) solution was placed in one of the aliquoted tubes, so as to realize sufficient dissolution, after which 400 μl of phosphate buffer saline (PBS) was added thereto, thus preparing a 25 μM beta-amyloid 1-42 solution.
ICR mice (The Jackson Laboratory, Bar Harbor, Me., USA) were divided into a normal group, a control group and four test groups. The respective test groups were intraperitoneally administered with the peptide of each of Example 1, Example 2, Comparative Example 1, and Comparative Example 2 in amounts of 25 mg/kg, and the control group was treated in the same manner as in the test group, with the exception that an excipient (10% DMSO in saline, 10 ml/kg) was used in lieu of the peptide. After 20 min, the control group and the test groups were intravenously (i.v.) injected through the tail vein with 400 μl of 25 μM beta-amyloid 1-42. Furthermore, the normal group was treated in the same manner as in the control group, with the exception that beta-amyloid 1-42 was not added. 10 min after the tail venous injection of beta-amyloid, about 50 μl of blood was collected from the infraorbital vein of each mouse using a sodium-heparinized capillary tube, after which the mouse was immediately subjected to euthanasia with carbon dioxide (CO2) gas and then the right hemisphere of the mouse was extracted and stored in liquid nitrogen. All the collected blood samples were centrifuged at 13,000 rpm for 10 min. The supernatant was isolated, placed in the prepared tube, and diluted at 1/4000, followed by ELISA (Enzyme-Linked ImmunoSorbent Assay or Enzyme-Linked ImmunoSpecific Assay) ofbeta-amyloid 1-42.
The frozen right hemisphere was added with 3 ml of a RIPA buffer (Radio Immuno Precipitation Assay buffer), sonicated, and centrifuged, after which the supernatant was isolated, followed by protein concentration measurement through BCA assay (bicinchoninic acid assay). BCA assay was performed in accordance with the kit (Thermo Scientific, Waltham, Mass., USA, Cat. No. 23227) protocol. The beta-amyloid 1-42 concentration in the brain was measured through ELISA in a RIPA-homogenate. ELISA was performed in accordance with the kit (IBL International, Hamburg, Germany, Code No. 27711) protocol.

[2] = test system: GFAP (glial fibrillary acidic protein); assay: Biomarker change in animal models: brain GFAP by ELISA; assay type: in vivo, DTg mouse; conditions: DTg mice, 50 mg/kg intraperitoneally for 13 weeks; control 70.61±26.82
Method: (§1) In order to evaluate the effect of changing the biomarker using animal models in which an administration period of a total of 13 weeks was terminated in the <Evaluation of learning and memory recovery effects using animal models> test, the following test was conducted. After termination of intraperitoneal administration for a total of 13 weeks, the animal models were subjected to euthanasia using carbon dioxide (CO2) and the brain thereof was immediately extracted. Upon brain extraction, the entire brain was taken out so as not to be scratched, and was then lightly washed with saline solution. […]
(§2) The left hemisphere stored in a deep freezer at −80° C. was placed in a RIPA buffer (Radio Immuno Precipitation Assay buffer) and sonicated, thus preparing a brain homogenate. Thereafter, the amount of protein was measured through BCA assay (BicinChoninic Acid assay). […] The biomarker expression level was measured through ELISA, and ELISA assay was performed in accordance with the kit{Amyloid-beta(1-42) Elisa kit: IBL International, Hamburg, Germany (27711), TNF-alpha ELISA kit: Koma Biotech, Seoul, Korea (K0331186P), GFAP Elisa kit: Millipore Corporation, Billerica, Mass., USA (NS830)} protocol. […]
(§3) The biomarkers measured through ELISA were beta-amyloid 1-42, TNF-alpha, and GFAP (glial fibrillary acidic protein). […]

[3] = test system: double transgenic mouse (DTg mouse) models having induced human Alzheimer's disease; assay: Learning and memory recovery, Y-maze test in Alzheimer's model mice; assay type: in vivo; conditions: 50 mg/kg intraperitoneally once a day, 5 times a week, test 10 weeks after administration, control 49.44±3.88%, P<0.01
Excerpt: The learning and memory recovery effects of the peptide of Example 1 were experimentally verified. Specifically, in order to evaluate the effect of the peptide of Example 1 on inhibiting learning and memory reduction, which are symptoms of Alzheimer's disease, 30-week-old double transgenic mouse (DTg mouse, Jackson Laboratory, USA) models having induced human Alzheimer's disease, obtained in a manner in which a human-derived gene of beta-amyloid precursor protein APP (APPsw; amyloid mutation) having Swedish mutation and a human-derived gene in the form of exon-9 deletion of a gamma secretase PSI gene were over-expressed in the brain through genetic manipulation, were used for tests.
The test animals were acclimated in an animal room after purchase in accordance with the Guidelines for Experimental Animal Tests and treated in accordance with the approved Animal Experimental Plan. The test conditions were maintained at a temperature of 23±1° C. and a humidity of 50±5%, and the light/dark cycle was 12 hr ([…]). During the testing, animals were free to consume water and feed. […]
The Y-maze test is an experiment to observe the voluntary tendency of an animal to search a new environment using short-term memory ability. […] Spontaneous alternation (%) was calculated using the following equation. […]

TNF-alpha = assay: Biomarker change in animal models: brain TNF-alpha by ELISA; assay type: in vivo, DTg mouse; conditions: DTg mice, 50 mg/kg intraperitoneally for 13 weeks; control 1109.91±285.30; p<0.05
Method: as §1, §2, §3

beta-amyloid 1-42 [4] = assay: Biomarker change in animal models: brain beta-amyloid 1-42 by ELISA; assay type: in vivo, DTg mouse; conditions: DTg mice, 50 mg/kg intraperitoneally for 13 weeks; control 76.03±25.63
Method: as §1, §2, §3

beta-amyloid 1-42 [5] = assay: Inhibition of entry of blood beta-amyloid 1-42 into brain I (ELISA of brain and plasma); assay type: in vivo; conditions: ICR mice; for beta-amyloid 1-42 concentration in the brain: 20 min before i.v. 400 μl of 25 μM beta-amyloid 1-42, brain taken 10 min after
Method: The inhibition of entry of blood beta-amyloid 1-42 into the brain by the peptide of Example 1 was experimentally verified. Specifically, in order to evaluate the effect of the peptide of Example 1 on inhibiting the entry of beta-amyloid 1-42 into the brain, which is the cause of Alzheimer's disease, 1 mg of beta-amyloid 1-42 (American Peptide Company, Sunnyvale, Calif., USA) was added with 2 ml of hexafluoroisopropanol (HFIP), allowed to stand at room temperature for 3 days, and aliquoted at 100 μl each into tubes. After evaporation of hexafluoroisopropanol (HFIP) using a speed vacuum, 10 μl of an anhydrous DMSO (dimethyl sulfoxide) solution was placed in one of the aliquoted tubes, so as to realize sufficient dissolution, after which 400 μl of phosphate buffer saline (PBS) was added thereto, thus preparing a 25 μM beta-amyloid 1-42 solution.
ICR mice (The Jackson Laboratory, Bar Harbor, Me., USA) were divided into a normal group, a control group and two test groups. The respective test groups were intraperitoneally administered with the peptide of Example 1 in amounts of 2.5 mg/kg and 25 mg/kg, and the control group was treated in the same manner as in the test group, with the exception that an excipient (10% DMSO in saline, 10 ml/kg) was used in lieu of the peptide of Example 1. After 20 min, the control group and the test groups were intravenously (i.v.) injected through the tail vein with 400 μl of 25 μM beta-amyloid 1-42. Furthermore, the normal group was treated in the same manner as in the control group, with the exception that beta-amyloid 1-42 was not added. […]
The frozen right hemisphere was added with 3 ml of a RIPA buffer (Radio Immuno Precipitation Assay buffer), sonicated, and centrifuged, after which the supernatant was isolated, followed by protein concentration measurement through BCA assay (bicinchoninic acid assay). […] The beta-amyloid 1-42 concentration in the brain was measured through ELISA in a RIPA-homogenate. […]

Compound | entry of beta-amyloid into the brain (result in words) (beta-amyloid 1-42 [1]) | Beta-amyloid 1-42 concentration in brain (beta-amyloid 1-42 [1]) | GFAP concentration in brain homogenate [2] | spontaneous alternation (Y-maze test) [3] | TNF-alpha concentration in brain homogenate (TNF-alpha) | beta-amyloid 1-42 concentration in brain homogenate (beta-amyloid 1-42 [4]) | beta-amyloid 1-42 concentration in the brain (beta-amyloid 1-42 [5]; peptide 2.5 mg/kg intraperitoneally) | beta-amyloid 1-42 concentration in the brain (beta-amyloid 1-42 [5]; peptide 25 mg/kg intraperitoneally) | plasma beta-amyloid levels versus control group (beta-amyloid 1-42 [5]; peptide 2.5 and 25 mg/kg intraperitoneally, blood 10 min after i.v. beta-amyloid 1-42)
VKMDAEFR [Comparative Example 2] | did not inhibit | 87.6 ± 14.9 pg/mg protein | – | – | – | – | – | – | –
N[C@@H](CC(=O)O)C(=O)NCC(=O)N[C@@H](CCC(=O)O)C(=O)N[C@@H](Cc1ccccc1)C(=O)O [Example 2, DGEF] (H-DGEF-OH; N-terminus and C-terminus assumed) | effectively inhibited | 48.8 ± 14.7 pg/mg protein | – | – | – | – | – | – | –
DGEFF [Example 1, DGEFF] | – | 54.8 ± 8.0 pg/mg protein | 47.63±24.92 ng/mg protein | 63.22±2.56% | 798.99±172.90 pg/mg protein | 57.56±28.47 ng/mg protein | 195.5 ± 5.6 pg/mg | 187.8 ± 2.4 pg/mg | not greatly different
DAEF [Comparative Example 1] | did not inhibit | 69.5 ± 6.1 pg/mg protein | – | – | – | – | – | – | –
